# Laboratory results as given in patent US4572916A, “Tablets” (priority 1979, dated 1986).
# “Also recorded” adds a separate entry of the source.
# Assays:
# [1] = Flowability: flow of 100 g tablet mix through a 3/8 inch orifice funnel; assay type: physicochemical; settings: for Time for 100 g of the tablet mix to flow through the 3/8 inch orifice funnel: no vibration, "No flow" = unable to flow completely without agitation
# [2] = Tablets made using a 1/4 inch flat face punch; assay type: physicochemical; settings: Example 6, aspirin tablets; for Tablet making results: 1/4 inch flat face punch
# Experimental: (a) The aspirin was mixed with the carrier under test, taking care to avoid moisture pick-up. The flavour was added to the starch with thorough mixing. The magnesium stearate was then added to the starch and this combination blended, with agitation, with the aspirin-carrier mix. (c) Tablets were made using a 1/4 inch flat face punch with the following results: […]
# [3] = tested on: enzyme complex in the human intestine; settings: literature clinical / in vitro studies (Holzen); cited from earlier work
# [4] = Tablets made using a 1/4 inch flat face punch; assay type: physicochemical; settings: Example 7, ascorbic acid tablets, in words
# [5] = Tablet hardness: % weight loss on vibration in a container for 1 hour; assay type: physicochemical
# Experimental: (e) Tablet hardness was then assessed. For an objective test, the tablets were vibrated in a container for 1 hour.
# [6] = Viscosity of isomaltulose solution in water; assay type: physicochemical; settings: H2O
# [7] = Sweetness and taste of isomaltulose
# [8] = Tablet formation, integrity and fines during tabletting and handling; assay type: physicochemical
# Excerpt: 50 g isomaltulose, 4 g gum arabic, 1 g magnesium stearate and 13 g saccharin were dry mixed, giving a flowable tabletting powder. Tablets were formed by direct compression of the powder. […]
# [9] = Acid hydrolysis of isomaltulose; assay type: physicochemical; settings: 90 h at 58° C. in 2M HCl
# [10] = Reducing power of isomaltulose relative to glucose; assay type: physicochemical
# Tablet weight = assay type: physicochemical; settings: Example 6, aspirin tablets
# Excerpt: (d) The tablet weights were:
# [11] = Solubility in water of isomaltulose; assay type: physicochemical
# [12] = Equilibrium relative humidity / water content of isomaltulose; assay type: physicochemical; settings: 80% and 22° C.
smiles,measurement,setting,value
"OC[C@H]1OC(O)[C@H](O)[C@@H](O)[C@@H]1O (stereo partly shown) [Anhydrous dextrose, reference compound]",Time for 100 g of the tablet mix to flow through the 3/8 inch orifice funnel,"[1]; Example 6, aspirin mix",No flow
same,Tablet making results,[2],As (iv)
O=C[C@H](O)[C@@H](O)[C@H](O)[C@H](O)CO [Dextrose],"Flowability, 100 g through 3/8"" orifice, no agitation","[1]; Example 7, ascorbic acid mix",Agitation required
"OC[C@H]1O[C@H](OC[C@H]2OC(O)(CO)[C@@H](O)[C@@H]2O)[C@H](O)[C@@H](O)[C@@H]1O (stereo partly drawn) [Isomaltulose, 6-O-(αglucopyranosyl)-D-fructofuranose]","flowability, comparison of carriers","[1]; Example 6, aspirin mix, in words","comparable with the specially prepared products Dipac and Emdex, and better than the lactose, icing sugar or anydrous dextrose"
same,Time for 100 g of the tablet mix to flow through the 3/8 inch orifice funnel,"[1]; Example 6, aspirin mix",38 s
same,"Flowability, 100 g through 3/8"" orifice, no agitation","[1]; Example 7, ascorbic acid mix",43 s
same,flowability,"[1]; Example 7, ascorbic acid mix, in words",performed well on flowability
same,fate of the constituent monosaccharides (fructose and glucose),[3],"adsorbed, metabolized and otherwise behave as fructose and glucose derived from sucrose"
same,hydrolysis by an enzyme complex in the human intestine,[3],readily hydrolyzed
same,tablet quality,[4],"shiny, hard and had good appearance; also recorded: clearly superior to the dextrose, lactose and sucrose"
same,% weight loss on vibration (tablet hardness),"[5]; Example 6, aspirin tablets, vibrated 1 hour",3.2%
same,Weight loss on vibration for 1 hour,"[5]; Example 7, ascorbic acid tablets",1.8%
same,tablet hardness,"[5]; Example 7, ascorbic acid tablets, in words",not so well on tablet hardness; also recorded: not as hard as with the specially formulated carriers
same,"viscosity at 25° C., 50% w/v, H2 O",[6],6 cp
same,dental plaque formation,Streptococcus mutans,little if any dental plaque is formed
same,metabolism by Streptococcus mutans,Streptococcus mutans; preliminary studies,metabolized by Streptococcus mutans
same,taste,[7]; in words,"pleasant, not very sweet, reasonably bland taste"
same,sweetness (relative to sucrose sweetness at 7% w/v in water),"[7]; relative to sucrose, 7% w/v in water",0.37
same,binding power when formed into tablets,[8]; in words,unusually good binding power
same,fines during handling,[8]; tablets with isomaltulose as diluent versus comparable lactose tablets,often show less tendency to generate fines during handling
same,degraded at 90 h,[9],40%
same,reducing power,[10],58-62 % of that of glucose
same,Tablet making results,[2],Tablets successfully made; also recorded: Released from die easily; also recorded: Good shiny appearance; also recorded: Good integrity
same,"tablet making, comparison of carriers",[2]; in words,"comparable with the Dipac and Emdex, and superior to the other carriers"
same,tablet weights,Tablet weight,151 mg
same,solubility in water compared with lactose,"[11]; in words, versus lactose",better solubility in water than lactose
same,solubility,"[11]; water, 30° C., H2O, read-out: solubility at 30° C., H2 O",460 mg/mL
same,water content at 80% equilibrium relative humidity and 22 °C,[12],25-32 % water
"OC[C@H]1O[C@@H](O[C@H]2[C@H](O)[C@@H](O)C(O)O[C@@H]2CO)[C@H](O)[C@@H](O)[C@H]1O (stereo partly shown) [Lactose, reference compound]",Time for 100 g of the tablet mix to flow through the 3/8 inch orifice funnel,"[1]; Example 6, aspirin mix",No flow
same,"Flowability, 100 g through 3/8"" orifice, no agitation","[1]; Example 7, ascorbic acid mix",Agitation required
same,tablet quality / tablet formation,"[8]; Example 4(i), direct compression with gum arabic, saccharin tablets",not possible to produce coherent tablets
same,tablet formation,"[8]; Example 4(ii), direct compression without binder, saccharin tablets",Tablets could not be made
same,Tablet making results,[2],Tablet machine prone to sticking
OC[C@H]1O[C@@](CO)(O[C@H]2O[C@H](CO)[C@@H](O)[C@H](O)[C@H]2O)[C@@H](O)[C@@H]1O [Sucrose],"Flowability, 100 g through 3/8"" orifice, no agitation","[1]; Example 7, ascorbic acid mix",Agitation required
